Assay results published in ChEMBL document CHEMBL5331073, “Discovery of novel 7,7-dimethyl-6,7-dihydro-5H-pyrrolo[3,4-d]pyrimidines as ATR inhibitors based on structure-based drug design” (Eur J Med Chem, 2023).
≈ marks a conversion by molar mass, not a printed value. Calls of active or inactive are those of the source. The rule behind the calls is not given here.

What was measured:
LoVo [1] = experiment: Antiproliferative activity against ATM-deficient human LoVo cells assessed as reduction in cell proliferation incubated for 3 days by MTT assay; assay type: functional, cell-based; conditions: 72 h
HT-29 [2] = experiment: Antiproliferative activity against ATM-proficient human HT-29 cells assessed as reduction in cell proliferation incubated for 3 days by MTT assay; assay type: functional, cell-based; conditions: HT-29, 72 h
[3] = Aqueous solubility of compound at pH 7.4 by HPLC-MS/MS analysis; assay type: physicochemical; conditions: aqueous medium
A549 [4] = experiment: Synergistic antiproliferative activity against ATM-proficient human A549 cells assessed as reduction in cell viability incubated for 3 days in presence of oxaliplatin by MTT assay; assay type: functional, cell-based; conditions: A549, 72 h
A549 [5] = experiment: Antiproliferative activity against ATM-proficient human A549 cells assessed as reduction in cell viability incubated for 3 days by MTT assay; assay type: functional, cell-based; conditions: A549, 72 h
A549 [6] = experiment: Antiproliferative activity against ATM-proficient human A549 cells assessed as reduction in cell viability incubated for 3 days in presence of AZD-1390 by MTT assay; assay type: functional, cell-based; conditions: A549, 72 h
[7] = target: DNA-dependent protein kinase catalytic subunit (Homo sapiens, UniProt P78527); experiment: Inhibition of DNA-PK (unknown origin) using peptide as substrate preincubated for 10 mins followed by substrate addition by microplate reader analysis
[8] = MRT(t) in Sprague-Dawley rat at 1 mg/kg, iv and measured upto 24 hrs by LC-MS analysis; assay type: ADME, organism-based; conditions: in vivo
in vitro [9] = conditions: human, liver microsomes
[10] = Tmax in Sprague-Dawley rat at 5 mg/kg, po and measured upto 24 hrs by LC-MS analysis; assay type: ADME, organism-based; conditions: in vivo
[11] = Aqueous solubility of compound at pH 2.0 by HPLC-MS/MS analysis; assay type: physicochemical; conditions: aqueous medium
[12] = target: Phosphatidylinositol 4,5-bisphosphate 3-kinase catalytic subunit alpha isoform (Homo sapiens, UniProt P42336); experiment: Inhibition of PI3Kalpha (unknown origin) using peptide as substrate preincubated for 10 mins followed by substrate addition by microplate reader analysis
LoVo [13] = experiment: Antiproliferative activity against ATM-deficient human LoVo cells assessed as reduction in cell proliferation at 0.1 to 25 uM incubated for 3 days by MTT assay; assay type: functional, cell-based; conditions: dose 0.1-25 µM, time 3.0 day
[14] = Volume of distribution at steady state in Sprague-Dawley rat at 1 mg/kg, iv and measured upto 24 hrs by LC-MS analysis; assay type: ADME, organism-based; conditions: in vivo, read-out: Vdss
HT-29 [15] = experiment: Antiproliferative activity against ATM-proficient human HT-29 cells assessed as reduction in cell proliferation at 0.5 to 22 uM incubated for 3 days by MTT assay; assay type: functional, cell-based; conditions: dose 0.5-22 µM, time 3.0 day
Cytochrome P450 1A2 = target: T1, Cytochrome P450 1A2 (Homo sapiens, UniProt P05177); experiment: Inhibition of CYP1A2 in human liver microsomes using […] as substrate preincubated for 5 mins followed by NADPH addition and measured after 120 mins by LC-MS/MS analysis; assay type: ADME, Microsome
T1 sequence (P05177 whole entry): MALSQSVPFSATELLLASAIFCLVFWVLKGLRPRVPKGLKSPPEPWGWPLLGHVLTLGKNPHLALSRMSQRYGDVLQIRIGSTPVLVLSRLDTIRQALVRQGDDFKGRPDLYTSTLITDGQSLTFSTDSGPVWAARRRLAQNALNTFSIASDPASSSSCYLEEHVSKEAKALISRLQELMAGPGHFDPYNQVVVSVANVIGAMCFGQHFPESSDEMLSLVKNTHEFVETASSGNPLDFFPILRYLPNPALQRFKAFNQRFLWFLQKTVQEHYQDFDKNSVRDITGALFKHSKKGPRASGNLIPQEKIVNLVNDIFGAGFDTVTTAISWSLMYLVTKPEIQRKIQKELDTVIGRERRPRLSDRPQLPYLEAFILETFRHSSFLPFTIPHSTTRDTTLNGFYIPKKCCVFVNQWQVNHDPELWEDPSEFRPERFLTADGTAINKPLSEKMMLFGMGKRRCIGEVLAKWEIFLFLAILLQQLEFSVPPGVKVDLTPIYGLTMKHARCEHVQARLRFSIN

HCT-116 = experiment: Synergistic antiproliferative activity against ATM-proficient human HCT-116 cells assessed as reduction in cell viability incubated for 3 days in presence of oxaliplatin by MTT assay; assay type: functional, cell-based; conditions: HCT-116, 72 h
in vitro [16] = conditions: rat, liver microsomes
in vitro [17] = conditions: rat, liver microsomes; remark: listed apart in the source
LoVo [18] = experiment: Inhibition of colony formation of ATM-deficient human LoVo cells at 0.3 to 1 uM incubated for 2 weeks by crystal violet staining based assay; assay type: functional, cell-based; conditions: dose 0.3-1 µM
[19] = Efflux ratio of apparent permeability across basolateral to apical side over apical to basolateral side in human Caco2 cells; assay type: ADME, cell-based; conditions: Caco-2
[20] = MRT (0 to infinity) in Sprague-Dawley rat at 1 mg/kg, iv and measured upto 24 hrs by LC-MS analysis; assay type: ADME, organism-based; conditions: in vivo
[21] = MRT (0 to infinity) in Sprague-Dawley rat at 5 mg/kg, po and measured upto 24 hrs by LC-MS analysis; assay type: ADME, organism-based; conditions: in vivo
[22] = Oral bioavailability in Sprague-Dawley rat at 5 mg/kg and measured upto 24 hrs by LC-MS analysis; assay type: ADME, organism-based; conditions: in vivo

Sequence of Phosphatidylinositol 4,5-bisphosphate 3-kinase catalytic subunit alpha isoform (P42336 whole entry, canonical isoform): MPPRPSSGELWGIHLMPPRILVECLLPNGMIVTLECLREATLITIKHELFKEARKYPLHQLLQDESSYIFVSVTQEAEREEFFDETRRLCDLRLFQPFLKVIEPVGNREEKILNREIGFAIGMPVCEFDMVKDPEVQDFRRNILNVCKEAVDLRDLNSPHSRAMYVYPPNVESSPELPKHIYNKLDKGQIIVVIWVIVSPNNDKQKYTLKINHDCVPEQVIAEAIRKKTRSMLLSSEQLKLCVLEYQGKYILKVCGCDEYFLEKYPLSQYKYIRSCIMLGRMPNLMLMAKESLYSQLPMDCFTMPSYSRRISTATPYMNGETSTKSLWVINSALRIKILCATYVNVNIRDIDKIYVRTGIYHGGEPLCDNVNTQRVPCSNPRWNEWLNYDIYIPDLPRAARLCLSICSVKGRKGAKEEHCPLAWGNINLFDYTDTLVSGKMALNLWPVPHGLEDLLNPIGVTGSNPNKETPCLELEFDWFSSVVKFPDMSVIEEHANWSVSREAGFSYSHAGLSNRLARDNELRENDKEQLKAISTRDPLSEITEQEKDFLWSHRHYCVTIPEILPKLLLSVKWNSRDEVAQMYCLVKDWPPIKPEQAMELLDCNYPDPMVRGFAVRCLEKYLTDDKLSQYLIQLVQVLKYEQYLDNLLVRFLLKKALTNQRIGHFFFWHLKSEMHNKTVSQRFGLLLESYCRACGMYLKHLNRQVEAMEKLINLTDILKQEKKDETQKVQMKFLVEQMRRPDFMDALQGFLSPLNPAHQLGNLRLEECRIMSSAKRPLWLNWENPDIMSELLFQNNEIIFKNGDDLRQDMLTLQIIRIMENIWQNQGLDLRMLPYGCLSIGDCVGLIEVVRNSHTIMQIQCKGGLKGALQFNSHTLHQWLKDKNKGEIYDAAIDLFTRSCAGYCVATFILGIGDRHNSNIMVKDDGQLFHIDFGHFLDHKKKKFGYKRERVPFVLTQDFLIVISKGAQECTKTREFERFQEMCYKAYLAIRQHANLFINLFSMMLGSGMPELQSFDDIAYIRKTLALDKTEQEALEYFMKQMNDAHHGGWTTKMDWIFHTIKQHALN
Sequence of DNA-dependent protein kinase catalytic subunit (P78527 whole entry): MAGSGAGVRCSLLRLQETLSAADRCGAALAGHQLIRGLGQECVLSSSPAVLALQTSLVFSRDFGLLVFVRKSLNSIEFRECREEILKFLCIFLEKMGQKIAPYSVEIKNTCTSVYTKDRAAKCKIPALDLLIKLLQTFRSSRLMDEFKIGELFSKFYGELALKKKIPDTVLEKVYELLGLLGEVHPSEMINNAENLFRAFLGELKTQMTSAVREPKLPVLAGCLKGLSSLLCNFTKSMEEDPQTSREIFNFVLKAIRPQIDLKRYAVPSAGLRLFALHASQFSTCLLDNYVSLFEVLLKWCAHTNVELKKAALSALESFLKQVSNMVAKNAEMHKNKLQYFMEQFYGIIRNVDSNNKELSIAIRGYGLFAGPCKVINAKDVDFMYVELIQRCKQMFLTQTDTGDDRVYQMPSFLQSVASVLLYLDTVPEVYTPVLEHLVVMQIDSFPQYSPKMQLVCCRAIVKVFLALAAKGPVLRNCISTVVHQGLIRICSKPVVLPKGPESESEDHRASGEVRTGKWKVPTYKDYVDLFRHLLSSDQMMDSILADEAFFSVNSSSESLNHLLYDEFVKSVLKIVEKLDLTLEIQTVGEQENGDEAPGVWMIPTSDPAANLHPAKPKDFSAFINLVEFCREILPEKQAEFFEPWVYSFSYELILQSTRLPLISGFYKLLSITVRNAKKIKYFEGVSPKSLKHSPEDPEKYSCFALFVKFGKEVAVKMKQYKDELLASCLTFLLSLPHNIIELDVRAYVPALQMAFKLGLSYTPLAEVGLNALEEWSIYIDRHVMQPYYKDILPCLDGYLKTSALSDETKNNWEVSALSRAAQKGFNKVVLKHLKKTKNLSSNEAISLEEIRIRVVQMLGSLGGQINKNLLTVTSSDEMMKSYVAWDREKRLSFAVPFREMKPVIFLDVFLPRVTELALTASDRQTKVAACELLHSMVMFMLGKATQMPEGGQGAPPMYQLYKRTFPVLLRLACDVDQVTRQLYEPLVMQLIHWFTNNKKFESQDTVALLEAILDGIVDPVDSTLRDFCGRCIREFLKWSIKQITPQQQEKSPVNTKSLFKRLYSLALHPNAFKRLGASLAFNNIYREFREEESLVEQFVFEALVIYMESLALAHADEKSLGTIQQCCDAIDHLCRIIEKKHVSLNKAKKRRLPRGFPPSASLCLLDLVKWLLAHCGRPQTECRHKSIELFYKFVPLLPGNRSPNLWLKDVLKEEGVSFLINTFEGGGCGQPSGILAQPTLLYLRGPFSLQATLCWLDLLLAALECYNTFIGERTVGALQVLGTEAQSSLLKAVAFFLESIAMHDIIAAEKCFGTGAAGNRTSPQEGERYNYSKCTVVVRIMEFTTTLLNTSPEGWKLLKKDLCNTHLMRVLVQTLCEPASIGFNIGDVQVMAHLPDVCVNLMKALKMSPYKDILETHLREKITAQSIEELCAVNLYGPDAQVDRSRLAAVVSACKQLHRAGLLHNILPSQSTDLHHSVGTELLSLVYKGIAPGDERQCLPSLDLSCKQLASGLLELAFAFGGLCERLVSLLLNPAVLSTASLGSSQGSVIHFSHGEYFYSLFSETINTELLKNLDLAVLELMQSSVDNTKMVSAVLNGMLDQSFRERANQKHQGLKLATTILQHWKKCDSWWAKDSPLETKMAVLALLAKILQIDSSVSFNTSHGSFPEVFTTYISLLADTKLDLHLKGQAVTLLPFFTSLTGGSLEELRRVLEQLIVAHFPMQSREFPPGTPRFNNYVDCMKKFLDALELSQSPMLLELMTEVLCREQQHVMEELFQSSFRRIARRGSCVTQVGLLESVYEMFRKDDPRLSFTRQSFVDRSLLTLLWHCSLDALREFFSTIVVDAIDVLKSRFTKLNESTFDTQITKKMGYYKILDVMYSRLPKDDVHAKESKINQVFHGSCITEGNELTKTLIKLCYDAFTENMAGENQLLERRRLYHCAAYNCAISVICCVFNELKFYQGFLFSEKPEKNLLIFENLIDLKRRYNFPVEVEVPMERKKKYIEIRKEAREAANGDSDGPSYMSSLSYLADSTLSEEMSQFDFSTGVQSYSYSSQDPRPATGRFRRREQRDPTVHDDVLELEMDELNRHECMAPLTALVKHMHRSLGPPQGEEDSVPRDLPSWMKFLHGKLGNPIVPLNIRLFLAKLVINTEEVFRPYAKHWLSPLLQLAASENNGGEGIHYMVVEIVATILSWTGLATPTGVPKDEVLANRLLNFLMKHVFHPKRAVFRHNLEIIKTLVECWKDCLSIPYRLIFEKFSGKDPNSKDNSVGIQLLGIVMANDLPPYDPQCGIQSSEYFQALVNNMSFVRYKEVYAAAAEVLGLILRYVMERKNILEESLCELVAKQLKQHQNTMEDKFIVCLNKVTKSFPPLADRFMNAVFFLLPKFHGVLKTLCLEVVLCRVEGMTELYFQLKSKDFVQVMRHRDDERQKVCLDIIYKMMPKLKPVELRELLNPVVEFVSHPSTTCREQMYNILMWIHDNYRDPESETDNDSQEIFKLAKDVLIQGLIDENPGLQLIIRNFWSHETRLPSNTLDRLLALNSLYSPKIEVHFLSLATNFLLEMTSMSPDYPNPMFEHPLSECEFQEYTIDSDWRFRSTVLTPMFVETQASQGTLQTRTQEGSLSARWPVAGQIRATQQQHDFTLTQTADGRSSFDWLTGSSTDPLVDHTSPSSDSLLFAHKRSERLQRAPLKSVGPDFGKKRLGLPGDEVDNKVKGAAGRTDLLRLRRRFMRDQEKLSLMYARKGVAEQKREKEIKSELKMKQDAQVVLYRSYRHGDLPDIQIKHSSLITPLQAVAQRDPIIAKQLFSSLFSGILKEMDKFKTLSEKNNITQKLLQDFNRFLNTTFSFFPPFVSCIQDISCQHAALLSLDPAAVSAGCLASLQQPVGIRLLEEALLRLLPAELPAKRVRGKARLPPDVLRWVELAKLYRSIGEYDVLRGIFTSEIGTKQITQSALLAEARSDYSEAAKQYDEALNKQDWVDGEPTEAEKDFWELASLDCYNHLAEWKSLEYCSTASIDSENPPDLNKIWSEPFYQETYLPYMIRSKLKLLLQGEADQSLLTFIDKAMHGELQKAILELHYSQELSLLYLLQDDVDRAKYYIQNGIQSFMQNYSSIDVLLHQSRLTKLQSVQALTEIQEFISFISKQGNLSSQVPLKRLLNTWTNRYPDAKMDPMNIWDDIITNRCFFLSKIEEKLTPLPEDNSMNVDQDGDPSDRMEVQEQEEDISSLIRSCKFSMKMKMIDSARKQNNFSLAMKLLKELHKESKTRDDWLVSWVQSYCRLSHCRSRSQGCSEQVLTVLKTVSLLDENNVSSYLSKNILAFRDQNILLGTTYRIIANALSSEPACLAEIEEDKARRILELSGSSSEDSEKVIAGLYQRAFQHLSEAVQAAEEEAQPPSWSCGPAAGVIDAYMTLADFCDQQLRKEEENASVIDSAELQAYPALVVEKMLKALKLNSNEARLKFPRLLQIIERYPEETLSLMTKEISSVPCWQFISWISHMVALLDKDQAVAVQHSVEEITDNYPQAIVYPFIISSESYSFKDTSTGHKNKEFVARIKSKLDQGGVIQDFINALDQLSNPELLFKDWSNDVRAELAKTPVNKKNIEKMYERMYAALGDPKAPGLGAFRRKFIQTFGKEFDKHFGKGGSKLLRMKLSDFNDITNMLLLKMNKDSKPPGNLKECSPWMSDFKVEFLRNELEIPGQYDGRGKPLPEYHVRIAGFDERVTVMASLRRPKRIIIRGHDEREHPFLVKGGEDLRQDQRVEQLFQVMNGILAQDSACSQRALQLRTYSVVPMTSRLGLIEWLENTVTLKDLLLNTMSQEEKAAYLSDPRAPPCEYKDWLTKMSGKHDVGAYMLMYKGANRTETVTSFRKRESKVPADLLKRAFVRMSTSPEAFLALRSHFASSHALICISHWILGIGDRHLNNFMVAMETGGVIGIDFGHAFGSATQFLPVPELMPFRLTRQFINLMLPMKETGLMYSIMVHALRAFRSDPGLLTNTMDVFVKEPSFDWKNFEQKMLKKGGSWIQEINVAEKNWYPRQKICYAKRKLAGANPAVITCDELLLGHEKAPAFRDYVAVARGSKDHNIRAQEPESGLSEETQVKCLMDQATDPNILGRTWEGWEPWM

Compound | IC50 (LoVo [1]) [nM] | IC50 (HT-29 [2]) [nM] | solubility [3] [µM] | IC50 (A549 [4]) [nM] | IC50 (A549 [5]) [nM] | IC50 (A549 [6]) [nM] | IC50 [7] [nM] | MRT last at 24 h [8] [h] | half-life at 1 h, 1 µM (in vitro [9]) [h] | Tmax [10] [h] | solubility [11] [µM] | IC50 [12] [nM] | Vd [14] [L/kg] | IC50 (Cytochrome P450 1A2) [nM] | IC50 (HCT-116) [nM] | microsomal CLint at 1 h, 1 µM (in vitro [16]) [µL/min/mg] | CLint scaled at 1 h, 1 µM (in vitro [17]) [mL/min/kg] | efflux ratio [19] | MRT inf [20] [h] | MRT inf [21] [h] | other results
C[C@@H]1COCCN1c1nc(-c2cccc3[nH]ccc23)nc2c1CN(C(=O)c1cccc(S(C)(=O)=O)c1)C2(C)C | 40 | 197 | 15.4 (≈ 8.4 µg/mL) | 114 | 302 | 13 | 662 | 1.36 | 0.0567 | 2 | 84.3 (≈ 46 µg/mL) | 1000 | 1.24 | > 10000 | 13 | 66.2 | 119 | 2 | 1.45 | 4.26 | Activity (LoVo [13]): Dose-Dependent Effect; Activity (HT-29 [15]): Dose-Dependent Effect; inhibition (LoVo [18]): Active; bioavailability [22]: 30%
C[C@@H]1COCCN1c1nc(-c2cccc3[nH]ccc23)nc2c1CN(C(=O)c1ccc3c(c1)OCO3)C2(C)C | 78 | 421 | 0.34 (≈ 0.174 µg/mL) | 337 | 741 | 127 | 1000 | 1.99 | 0.435 | 1.67 | 47.6 (≈ 24.4 µg/mL) | 1000 | 0.785 | > 10000 | 67 | 35.3 | 63.6 | 1.2 | 2.19 | 4.21 | bioavailability [22]: 41.6%
